The source of these data is ChEMBL document CHEMBL1201862, “PubChem BioAssay data set” (2004).

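Briefly, cells in 96-well plates were exposed to five compound concentrations for 48 h, and endpoints were estimated by linear interpolation. The concentration for 50% growth inhibition is given as GI50.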 The source made the active and inactive calls. Cut-off read from the data, not from the text of the source: active = GI50 up to about 1.1 µM and inactive = higher. Where only a bound is given, the exact number is not on record here.

Some test systems named below: BT-549; Hs-578T; DMS-114; KM-20L2; LXFL 529; SNB-78; XF498; M19-MEL.
Common to all, as to test: growth of human tumour cells (NCI), 48 h

With `COc1cc(C(c2cc(OC)c(OC)c(OC)c2)N2C(=O)CCC2C(=O)O)cc(OC)c1OC` (centres undefined), the GI50 in the assay on BT-549 and with Hs-578T was > 100 µM (inactive) each time.
As to `CCCCCCCCCc1cc(O)c(O)cc1CCCCCCCCC`, the GI50 in the assay with BT-549 and in the assay with Hs-578T was > 10 µM (inactive) each time.
As for `CC1=C(Cl)C=CP(=O)(Oc2ccccc2)C1` (centres undefined), the GI50 with DMS-114 is 25.4 µM (inactive); with KM-20L2, > 100 µM (inactive); in the assay on LXFL 529, 15.3 µM (inactive); in the assay on SNB-78 it was 41.1 µM (inactive); in the assay on XF498, 57.7 µM (inactive).
`COC(=O)c1ccc2c(c1)CC1(C2)Cc2ccccc2C1=O` (centres undefined): in the assay with Hs-578T, the GI50 is 69.7 µM (inactive).
As for `C[C@]12CC[C@H](O)CC1=CC[C@@H]1[C@@H]2CC[C@]2(C)NC(=O)/C(=C\c3ccccc3)C[C@@H]12`, the GI50 with BT-549 was 17 µM (inactive).
On to `COc1ccc2c(c1)CCCN2S(=O)(=O)c1ccccc1[N+](=O)[O-]`, for which the GI50 in the assay with BT-549 is 9.06 µM (inactive); in the assay with Hs-578T, 43.7 µM (inactive).
The corresponding values for `Cc1cccc(Nc2nc3ccccc3nc2NS(=O)(=O)c2ccc(N)cc2)c1` are 9.42 µM (inactive) and 49.5 µM (inactive).
The like results for `CCOC(=O)c1nc2ccccc2nc1Nc1ccc(F)cc1` were, in that order, 16.2 µM (inactive) and 10.2 µM (inactive).
The corresponding values for `O=C1/C(=C\c2cccc(Oc3ccccc3)c2)S(=O)(=O)C(c2ccccc2)N1c1cc(Cl)ccc1Cl` (centres undefined) are 18 µM (inactive) and 33.7 µM (inactive).
In the case of `COC(=O)Nc1nc(=O)c2cc(OC)c(OC)cc2[nH]1`, the GI50 with BT-549 was 15.3 µM (inactive); with Hs-578T, 66.1 µM (inactive).
`CC(C)(C)C(=O)OCC1CCC(n2cnc3c(=O)[nH]c(N)nc32)O1` (centres undefined): the GI50 with DMS-114, in the assay with KM-20L2, in the assay on M19-MEL, in the assay on SNB-78 and in the assay with XF498 was > 100 µM (inactive) each time.
For the compound `c1ccc(-c2c3c(nc4c2CC[C@H]4NC2=NCCN2)[C@@H](NC2=NCCN2)CC3)cc1`, the GI50 is > 40.3 µM (inactive) in the assay with BT-549 and > 100 µM (inactive) in the assay with Hs-578T.
The like results for `CC1=C(C(=O)N[C@@H](CC(C)C)C(=O)O)N2C(=O)[C@@H](NC(=O)[C@@H](N)Cc3ccccc3)[C@H]2SC1` were, in that order, > 100 µM (inactive) and > 100 µM (inactive).
The like results for `[O-]/[N+](=C\c1ccccc1OC(=S)S)c1ccc(Cl)cc1` were, in that order, 24.1 µM (inactive) and 51.1 µM (inactive).
The corresponding values for `N#C[BH2-][n+]1cn(C2CC(OP(=O)(O)OCC3OC(n4ccc(N)nc4=O)CC3O)C(CO)O2)c2nc(N)[nH]c(=O)c21` (centres undefined) are > 100 µM (inactive) and > 100 µM (inactive).
Consider `CC1=C2N3C[C@@H](n4c(=O)n(C)c(=O)n43)C23CCC1n1c(=O)n(C)c(=O)n13`, for which the GI50 in the assay with DMS-114 is 30.8 µM (inactive); in the assay on KM-20L2, > 100 µM (inactive); in the assay on LXFL 529, 85.1 µM (inactive); in the assay on M19-MEL, > 100 µM (inactive); with SNB-78, > 100 µM (inactive); with XF498, > 100 µM (inactive).
Regarding `COc1cccc2c1C(=O)c1c(O)c3c(c(O)c1C2=O)C[C@](O)(C(=O)CO)CC3OC1CC(N)C(OC2CCCCO2)C(C)O1` (some centres undefined), the GI50 in the assay on KM-20L2 was 0.624 µM (active); in the assay on SNB-78, 1.24 µM (inactive); in the assay on XF498, 0.0678 µM (active).
Regarding `FC(F)(F)c1ccc2c(c1)nc(Cc1ccc(Cl)cc1)n2CC1CCCN2CCCCC12` (centres undefined), the GI50 is 11.5 µM (inactive) with BT-549 and 1.19 µM (inactive) in the assay on Hs-578T.
The like results for `COc1cc(/C=C/C(=O)OCC23CC[C@@]4(C(=O)O)CCC(C)[C@H](C)C4C2=CCC2[C@@]4(C)CC[C@H](O)C(C)(C)C4CC[C@]23C)ccc1O` (some centres undefined) were, in that order, 19.5 µM (inactive) and 4.66 µM (inactive).
Regarding `Nc1ncnc2c(C3OC(CO)C(O)C3O)n[nH]c12` (centres undefined), the GI50 was 0.208 µM (active) in the assay with DMS-114; 0.229 µM (active) in the assay on KM-20L2; 2.42 µM (inactive) in the assay with M19-MEL; 0.53 µM (active) with SNB-78; 0.158 µM (active) in the assay on XF498.
Turning to `Cc1ccnc2nc(-c3ccc(F)cc3)cc(O)c12`, the values for the GI50 with BT-549 and in the assay on Hs-578T were > 100 µM (inactive) and 72.4 µM (inactive), respectively.
In the case of `COc1ccc2[nH]c3c(C)c4c(c(C)c3c2c1)CN(C)C=C4`, the GI50 with BT-549 was 1.97 µM (inactive); with DMS-114 it was 0.398 µM (active); in the assay with Hs-578T, 0.24 µM (active); with KM-20L2, 2.75 µM (inactive); in the assay with LXFL 529, 0.218 µM (active); in the assay on M19-MEL it was 1.02 µM (active). The GI50 in the assay with SNB-78 is 0.432 µM (active); in the assay with XF498, 1.07 µM (active).
As to `COc1ccc(-c2cc(O)c3cccnc3n2)cc1`, the figures for the GI50 with BT-549 and in the assay with Hs-578T were 77.4 µM (inactive) and 24.9 µM (inactive), respectively.
